Measurements as given in patent publication US6596687B1, “Cell adhesion inhibitors” (Biogen, Inc., priority 1995, dated 2003).
Where two headings read alike, the source gives them in different places. Numbered stars: 1 amine (or outer) side, 2 acyl side, 3 side chain; on linkers, the order of the positions; unused ones are H or OH. Square brackets hold non-standard residues; d marks the D form. Peptide text beside a SMILES is read from it. * marks the point of attachment. X3 = COc1cc(CC(=O)[*:2])ccc1N[*:1]; X2 = O=C(Cc1ccc(N[*:1])cc1)[*:2]; NH(2-Me-phenyl) = Cc1ccccc1N*; CO = O=C([*:1])[*:2]; NHPh = c1ccc(N*)cc1; X1 = Oc1ccccc1N*

Biological target: T1, VLA4 (Homo sapiens, UniProt P05556+P13612)
T1 construct: endogenous in cells; host or cells: Ramos cells
T1 sequence (P13612 34-1032): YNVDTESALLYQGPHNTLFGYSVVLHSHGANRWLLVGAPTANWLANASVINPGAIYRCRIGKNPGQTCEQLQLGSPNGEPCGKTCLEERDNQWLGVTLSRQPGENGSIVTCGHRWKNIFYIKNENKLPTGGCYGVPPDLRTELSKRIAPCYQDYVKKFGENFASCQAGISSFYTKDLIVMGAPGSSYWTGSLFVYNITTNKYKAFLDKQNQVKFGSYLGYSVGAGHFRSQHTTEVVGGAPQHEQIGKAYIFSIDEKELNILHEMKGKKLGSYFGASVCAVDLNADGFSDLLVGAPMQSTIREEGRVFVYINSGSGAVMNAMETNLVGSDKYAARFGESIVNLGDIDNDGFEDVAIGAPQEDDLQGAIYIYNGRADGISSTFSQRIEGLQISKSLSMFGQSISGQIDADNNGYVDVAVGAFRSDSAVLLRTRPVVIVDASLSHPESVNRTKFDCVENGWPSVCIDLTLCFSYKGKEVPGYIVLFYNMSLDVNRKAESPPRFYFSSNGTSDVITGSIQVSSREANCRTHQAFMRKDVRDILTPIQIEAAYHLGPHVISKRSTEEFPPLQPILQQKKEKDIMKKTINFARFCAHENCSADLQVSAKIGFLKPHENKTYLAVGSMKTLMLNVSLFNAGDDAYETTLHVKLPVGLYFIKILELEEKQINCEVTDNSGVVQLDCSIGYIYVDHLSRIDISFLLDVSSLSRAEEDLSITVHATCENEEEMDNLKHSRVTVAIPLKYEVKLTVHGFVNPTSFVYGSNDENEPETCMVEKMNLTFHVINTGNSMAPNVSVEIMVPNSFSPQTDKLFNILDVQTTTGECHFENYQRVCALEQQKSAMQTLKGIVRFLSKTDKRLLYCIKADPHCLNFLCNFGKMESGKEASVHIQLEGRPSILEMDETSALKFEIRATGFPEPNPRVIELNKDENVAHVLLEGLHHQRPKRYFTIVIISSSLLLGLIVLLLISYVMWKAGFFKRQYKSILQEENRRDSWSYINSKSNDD
T1 sequence (P05556 21-798): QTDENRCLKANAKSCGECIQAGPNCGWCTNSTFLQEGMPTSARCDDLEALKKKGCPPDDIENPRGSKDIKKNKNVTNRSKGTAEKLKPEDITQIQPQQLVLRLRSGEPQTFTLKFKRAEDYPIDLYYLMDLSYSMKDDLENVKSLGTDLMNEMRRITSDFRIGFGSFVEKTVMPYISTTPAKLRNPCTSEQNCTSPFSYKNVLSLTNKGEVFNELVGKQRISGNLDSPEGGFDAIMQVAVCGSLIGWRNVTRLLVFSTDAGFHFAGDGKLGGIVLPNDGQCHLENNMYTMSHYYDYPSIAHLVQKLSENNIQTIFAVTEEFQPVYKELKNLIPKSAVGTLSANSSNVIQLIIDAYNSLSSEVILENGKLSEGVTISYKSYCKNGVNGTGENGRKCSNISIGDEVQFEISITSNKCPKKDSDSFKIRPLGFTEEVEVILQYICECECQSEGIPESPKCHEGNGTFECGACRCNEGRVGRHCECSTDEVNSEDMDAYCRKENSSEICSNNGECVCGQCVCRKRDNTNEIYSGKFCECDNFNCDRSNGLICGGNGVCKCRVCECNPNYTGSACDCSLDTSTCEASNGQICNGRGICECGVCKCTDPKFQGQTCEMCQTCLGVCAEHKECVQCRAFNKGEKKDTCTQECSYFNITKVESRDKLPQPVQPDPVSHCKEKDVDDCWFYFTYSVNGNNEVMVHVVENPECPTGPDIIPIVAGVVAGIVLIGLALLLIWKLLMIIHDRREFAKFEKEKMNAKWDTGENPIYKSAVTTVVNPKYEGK
Assay: Inhibition of VLA4-dependent adhesion of Ramos cells to BSA-CS1
Type: cell-based
Description: For example, the cell adhesion inhibitory activity of these compounds may be measured by determining the concentration of inhibitor required to block the binding of VLA-4-expressing cells to fibronectin- or CS1-coated plates. In this assay microtiter wells are coated with either fibronectin (containing the CS1-sequence) or CS-1. If CS-1 is used, it must be conjugated to a carrier protein, such as bovine serum albumin, in order to bind to the wells. Once the wells are coated, varying concentrations of the test compound are then added together with appropriately labelled, VLA-4-expressing cells. Alternatively, the test compound may be added first and allowed to incubate with the coated wells prior to the addition of the cells. The cells are allowed to incubate in the wells for at least 30 minutes. Following incubation, the wells are emptied and washed. Inhibition of binding is measured by quantitating the fluorescence or radioactivity bound to the plate for each of the various concentrations of test compound, as well as for controls containing no test compound.
VLA-4-expressing cells that may be utilized in this assay include Ramos cells, Jurkat cells, A375 melanoma cells, as well as human peripheral blood lymophocytes (PBLs). The cells used in this assay may be fluorescently or radioactively labelled.
This assay was used to assess the potency of VLA4-directed inhibitory compounds of this invention. 1.
We dissolved BSA-SMCC (Pierce Chemical, Rockford, Ill.; Catalog #77115) in H2O at a concentration of 10 mg/mL. [SEQ ID NO:4]: […](“Cys-Tyr-CS1 peptide”), which we synthesized by conventional solid phase chemistry and purified by HPLC, was dissolved in 10 mM HEPES pH 5, 50 mM NaCl and 0.1 mM EDTA also at a concentration of 10 mg/mL. We then mixed 500 μL of BSA-SMCC, 250 μL of Cys-Tyr-CS1 peptide and 75 μL of 1 mM HEPES pH 7.5 and allowed the conjugation reaction to proceed for 30 minutes. We stopped the reaction by adding 1 μL of beta-mercaptoethanol. Samples were analyzed for cross-linking by SDS-PAGE.
We coated the wells of a Linbro titertek polystyrene 96-well flat bottom plate (Flow Laboratories, Maclean, Va.; catalog #76-231-05) with 100 μL of the above-described BSA-CS1 solution diluted to 1 μg/mL in 0.05 M NaHCO3 (15 mM NaHCO3, 35 mM Na2CO3) pH 9.2. Some wells were not coated with CS1 in order to assess non-specific cell binding (NSB). The plate was then incubated overnight at 4° C.
Following this incubation, the contents of the wells were removed by inverting and blotting the plate. All of the wells were then blocked with 100 μL of 1% BSA in PBS, 0.02% NaN3, for a minimum of one hour at room temperature.
Ramos cells are grown, maintained and labelled in RPMI 1640 culture medium containing 1% BSA. Just prior to running the assay, we added 2′, 7′-bis-(2-carboxyethyl)-5(and -6)carboxyfluorescein acetoxymethyl ester (“BCECF-AM”; Molecular Probes Inc., Eugene, Oregon; catalog #B-1150) to a final concentration of 2 μM to a culture of Ramos cells (4×10^6 cells/mL). We incubated the cells for 20 minutes at 37° C.
Following labelling, the cells were washed twice in assay buffer (24 mM TRIS, 137 mM NaCl, 2.7 mM KCl, pH 7.4, containing 0.1 BSA and 2mM glucose) to remove any cations originating from the culture medium. The cells were then resuspended in assay buffer to 4×10^6 cells/mL and 2 mM MnCl2 was added to upregulate VLA4 on the surface of the cells.
Immediately prior to running the assay, we removed the BSA blocking solution from the 96-well plates and washed the wells with 100 μL of assay buffer. We then added to each well 25 μL of test cell adhesion inhibitory compound at 2×the final concentration and 25 μL of the labelled Ramos cells. […] Each concentration of compound was tested in triplicate. The compound and cells are allowed to incubate for 30 minutes at room temperature.

[1] = Ramos cells, BSA-CS1 coated wells, 2 mM MnCl2, 30 minutes at room temperature, read-out: IC50

Row | IC50 [1] [µM] | Structure (SMILES) | IC50 [µM]
1 | > 10 | CC(C)C[C@H](NC(=O)c1ccc2ccccc2n1)C(=O)N[C@@H](CC(=O)O)C(=O)N[C@H](C(=O)N(C)c1ccccc1)C(C)C [Compound 121] | 
2 | > 10 | CC(C)C[C@H](NC(=O)c1ccc2ccccc2n1)C(=O)N[C@@H](CC(=O)O)C(=O)N[C@H](C(=O)Nc1ccc(F)cc1)C(C)C [Compound 123] | 
3 | > 10 | CC(C)C[C@H](NC(=O)c1ccc2ccccc2n1)C(=O)N[C@@H](CC(=O)O)C(=O)N[C@H](C(=O)Nc1ccccc1)C(C)C [Compound 125] | 
4 | > 10 | CNC(=O)[C@@H](NC(=O)[C@H](CC(=O)O)NC(=O)[C@H](CC(C)C)N(C)C(=O)c1ccccn1)C(C)C [Compound 126] | 
5 | > 10 | CNC(=O)[C@@H](NC(=O)[C@H](CC(=O)O)NC(=O)[C@H](CC(C)C)N(C)C(=O)c1ccc(OC)cc1)C(C)C [Compound 128] | 
6 | > 10 | COC(=O)[C@@H](NC(=O)[C@H](CC(=O)O)NC(=O)[C@H](CC(C)C)N(C)C(=O)CCc1ccccc1)C(C)C [Compound 140] (HELM PEPTIDE1{[O=C(CCc1ccccc1)[*:2]].[meL].D.V.[CO[*:1]]}$$$$V2.0) | 
7 | > 10 | COC(=O)[C@@H](NC(=O)[C@H](CC(=O)O)NC(=O)[C@H](CC(C)C)N(C)C(=O)Cc1ccc(O)cc1)C(C)C [Compound 141] | 
8 | > 10 | COC(=O)[C@@H](NC(=O)[C@H](CC(=O)O)NC(=O)[C@H](CC(C)C)N(C)C(=O)c1ccc2ccccc2n1)C(C)C [Compound 142] | 
9 | > 10 | COC(=O)[C@@H](NC(=O)[C@H](CC(=O)O)NC(=O)[C@H](CC(C)C)N(C)C(=O)CCCc1ccccc1)C(C)C [Compound 143] | 
10 | 0.05 to 10 | COC(=O)[C@@H](NC(=O)[C@H](CC(=O)O)NC(=O)[C@H](CC(C)C)NC(=O)c1cc2ccccc2cn1)C(C)C [Compound 156] | 
11 | > 10 | CC(C)C[C@H](NC(=O)c1ccc2ccccc2n1)C(=O)N[C@@H](CC(=O)O)C(=O)N[C@H](C(=O)OC(C)(C)C)C(C)C [Compound 158] | 
12 | > 10 | CC(C)C[C@H](NC(=O)c1ccc2ccccc2n1)C(=O)N[C@@H](CC(=O)OCc1ccccc1)C(=O)N[C@H](C(=O)O)C(C)C [Compound 159] | 

The remaining lines, values behind:

Row | Structure (SMILES) | IC50 [1] [µM] | IC50 [µM]
13 | CC(C)CC(NC(=O)C1CCc2ccccc2N1)C(=O)NC(CC(=O)O)C(=O)NC(C(=O)N(C)c1ccccc1)C(C)C (centres unmarked) [Compound 120] |  | > 10
14 | CC(C)C[C@H](NC(=O)C1CCc2ccccc2N1)C(=O)N[C@@H](CC(=O)O)C(=O)N[C@H](C(=O)Nc1ccc(F)cc1)C(C)C (some centres unmarked) [Compound 122] | > 10 | 
15 | CC(C)C[C@H](NC(=O)C1CCc2ccccc2N1)C(=O)N[C@@H](CC(=O)O)C(=O)N[C@H](C(=O)Nc1ccccc1)C(C)C (some centres unmarked) [Compound 124] | > 10 | 
16 | CC(C)C[C@H](NC(=O)c1ccc2ccccc2n1)C(=O)N[C@@H](CC(=O)O)C(=O)N[C@H](C(=O)N1CCN(c2ccccc2)CC1)C(C)C [Compound 127] | > 10 | 
17 | CNC(=O)[C@@H](NC(=O)[C@H](CC(=O)O)NC(=O)[C@H](Cc1ccc(O)cc1)NC(=O)Cc1ccccc1)C(C)C [Compound 129] (HELM PEPTIDE1{[O=C(Cc1ccccc1)[*:2]].Y.D.V.[CN[*:1]]}$$$$V2.0) | > 10 | 
18 | CNC(=O)[C@@H](NC(=O)[C@H](CC(=O)O)NC(=O)[C@@H]1CCCN1C(=O)Cc1ccccc1)C(C)C [Compound 130] (HELM PEPTIDE1{[O=C(Cc1ccccc1)[*:2]].P.D.V.[CN[*:1]]}$$$$V2.0) | > 10 | 
19 | CNC(=O)[C@@H](NC(=O)[C@H](CC(=O)O)NC(=O)[C@H](CCCNC(=N)N)NC(=O)Cc1ccccc1)C(C)C [Compound 131] (HELM PEPTIDE1{[O=C(Cc1ccccc1)[*:2]].R.D.V.[CN[*:1]]}$$$$V2.0) | > 10 | 
20 | CNC(=O)[C@@H](NC(=O)[C@H](CC(=O)O)NC(=O)[C@H](CC(N)=O)NC(=O)Cc1ccccc1)C(C)C [Compound 132] (HELM PEPTIDE1{[O=C(Cc1ccccc1)[*:2]].N.D.V.[CN[*:1]]}$$$$V2.0) | > 10 | 
21 | CNC(=O)[C@@H](NC(=O)[C@H](CC(=O)O)NC(=O)C1(NC(=O)OC(C)(C)C)CCc2ccccc2C1)C(C)C (some centres unmarked) [Compound 133] | > 10 | 
22 | CNC(=O)[C@@H](NC(=O)[C@H](CC(=O)O)NC(=O)C1(NC(=O)Cc2ccccc2)CCc2ccccc2C1)C(C)C (some centres unmarked) [Compound 134] | > 10 | 
23 | CC(C)(C)OC(=O)N[C@@H](CC(=O)O)C(=O)N1CCC[C@H]1C(=O)NCC(=O)O [Compound 135] (HELM PEPTIDE1{[CC(C)(C)OC(=O)[*:2]].D.P.G}$$$$V2.0) | > 10 | 
24 | O=C(O)CNC(=O)[C@@H]1CCCN1C(=O)[C@H](CC(=O)O)NC(=O)Cc1ccccc1 [Compound 136] (HELM PEPTIDE1{[O=C(Cc1ccccc1)[*:2]].D.P.G}$$$$V2.0) | > 10 | 
25 | CC(C)C[C@H](NC(=O)Cc1ccccc1)C(=O)N[C@@H](CC(=O)O)C(=O)N1CCC[C@H]1C(=O)NC(C(=O)O)C(=O)O [Compound 138] | > 10 | 
26 | CC(C)C[C@H](NC(=O)Cc1ccc(NC(=O)Nc2ccccc2O)cc1)C(=O)N[C@@H](CC(=O)O)C(=O)N[C@H](C(=O)N1CCC[C@H]1C(=O)O)C(C)C [Compound 144] ({X1-CO}-[X2]LDVP-OH) | < 0.05 | 
27 | CC(C)C[C@H](NC(=O)Cc1ccc(NC(=O)Nc2ccccc2)cc1)C(=O)N[C@@H](CC(=O)O)C(=O)N[C@H](C(=O)N1CCC[C@H]1C(=O)O)C(C)C [Compound 145] ({NHPh-CO}-[X2]LDVP-OH) | < 0.05 | 
28 | CSCC[C@H](NC(=O)Cc1ccc(NC(=O)Nc2ccccc2O)cc1)C(=O)N[C@@H](CC(=O)O)C(=O)N[C@H](C(=O)N1CCC[C@H]1C(=O)O)C(C)C [Compound 146] ({X1-CO}-[X2]MDVP-OH) | < 0.05 | 
29 | COc1cc(CC(=O)N[C@@H](CC(C)C)C(=O)N[C@@H](CC(=O)O)C(=O)N[C@H](C(=O)N2CCC[C@H]2C(N)=O)C(C)C)ccc1NC(=O)Nc1ccccc1 [Compound 147] ({NHPh-CO}-[X3]LDVP-NH2) | < 0.05 | 
30 | Cc1ccccc1NC(=O)Nc1ccc(CC(=O)N[C@@H](CC(C)C)C(=O)N[C@@H](CC(=O)O)C(=O)N[C@H](C(=O)N2CCC[C@H]2C(N)=O)C(C)C)cc1 [Compound 148] ({NH(2-Me-phenyl)-CO}-[X2]LDVP-NH2) | < 0.05 | 
31 | CC(C)[C@H](NC(=O)[C@H](CC(=O)O)NC(=O)OC(C)(C)C)C(=O)N1CCC[C@H]1C(=O)O [Compound 149] (HELM PEPTIDE1{[CC(C)(C)OC(=O)[*:2]].D.V.P}$$$$V2.0) | > 10 | 
32 | CC(C)[C@H](NC(=O)[C@H](CC(=O)O)NC(=O)CCCCc1ccccc1)C(=O)N1CCC[C@H]1C(=O)O [Compound 150] | > 10 | 
33 | C=CCC(CCc1ccccc1)C(=O)N[C@H](C(=O)N1CCC[C@H]1C(=O)O)C(C)C (some centres unmarked) [Compound 151] | > 10 | 
34 | CC(=O)N[C@@H](Cc1ccccc1)C(=O)N[C@@H](CC(C)C)C(=O)N[C@@H](CC(=O)O)C(=O)N[C@H](C(=O)O)C(C)C [Compound 152] (Ac-FLDV-OH) | > 10 | 
35 | COC(=O)[C@@H](NC(=O)[C@H](CC(=O)O)NC(=O)[C@H](CC(C)C)NC(=O)C1Cc2ccccc2CN1)C(C)C (some centres unmarked) [Compound 154] (HELM PEPTIDE1{[O=C(C1Cc2ccccc2CN1)[*:2]].L.D.V.[CO[*:1]]}$$$$V2.0) | > 10 | 
36 | CC(C)C[C@H](NC(=O)CCCc1ccccc1)C(=O)N[C@@H](CC(=O)O)C(=O)N[C@H](C(=O)O)C(C)C [Compound 155] | > 10 | 
37 | CC(C)CNC(=O)[C@H](CC(=O)O)NC(=O)[C@H](CC(C)C)NC(=O)c1cc2ccccc2cn1 [Compound 157] | 0.05 to 10 | 
38 | CC(C)C[C@H](NC(=O)c1ccc2ccccc2n1)C(=O)N[C@@H](CC(=O)O)C(=O)N[C@@H](CC(=O)O)C(=O)O [Compound 160] | > 10 | 
